For one data set, the target named is T1, purified HHAT (Homo sapiens, UniProt Q5VTY9).
T1 construct: made in house
The data set is described as follows: Acyl-cLIP assay, inhibition of purified HHAT. In kind it is biochemical. As to conditions: for LLEAcyl-cLIP: from Acyl-cLIP IC50 and clogDpH7.4; for IC50: purified HHAT, read-out: Acyl-cLIP Assay IC50 (CI95). Here is the method: The inhibitory potency of all 50 compounds against purified HHAT was quantified using the acylation-coupled lipophilic induction of polarization (acyl-cLIP) assay recently developed in our lab, a universally applicable assay for high-throughput analysis of protein–lipid transferases and hydrolases.[31],[40] In brief, in this assay a fluorescently labeled peptide based on the N-terminal sequence of SHH is incubated with N-dodecyl β-D-maltoside (DDM) solubilized purified HHAT, palmitoyl-CoA, and HHAT inhibitors. Binding of the lipidated peptide product to the DDM micelle results in decreased tumbling rate and an increase in polarization of fluorescence emission, enabling facile quantification of HHAT activity. Initially, % HHAT inhibition was determined at 50 μM and 25 μM for all analogues. […] HHAT is a 12-pass TM protein,[14] and we considered whether lipophilicity might bias inhibition; pIC50 values were compared to calculated log D, which indicated no significant correlation (SI, Table S1 and Figure S2). We concluded that lipophilicity is not a general driver of HHAT inhibitory potency.
The acyl-cLIP assay has been described previously.[40] Briefly, SHH-FAM peptide was diluted in buffer A (100 mM MES, 20 mM NaCl, 1 mM DTT, 1 mM TCEP, 0.1% BSA, pH 6.5) to a concentration of 2 μM. Palmitoyl-CoA (Sigma-Aldrich) was diluted in buffer A to 7.5 μM and recombinant HHAT (obtained by following the published protocol[14]) in buffer B (20 mM HEPES, 350 mM NaCl, 1% DDM, 5% glycerol, pH 7.3) diluted to 44 μg/mL. 1.5 μL of a 50 mM inhibitor DMSO stock was diluted with 18.5 μL of DMSO and further serial diluted (1:1). For each condition, 6 μL of the HHAT working stock and […] of the SHH-peptide working stock were mixed with 3 μL of the corresponding inhibitor concentration or DMSO vehicle. Twelve μL/well of this mixture was split into four wells of a black 384 well plate. To start the reaction, 8 μL of the Pal-CoA working stock were added to each well and fluorescence anisotropy and the total fluorescence recorded on an EnVision Xcite 2104 (PerkinElmer) over 30 min (emission filter 1 = FITC FP P-pol 535; emission filter 2 = FITC S-pol 535; excitation filter: FITC FP 480; measurement height = 6.5 mm; detector gain = 0; high concentration gain). Initial rate constants were determined by linear regression and normalized to DMSO control and samples with buffer B instead of HHAT. IC50 values were extracted from the corresponding dose response curves using a “sigmoidal dose response (variable slope)” model in GraphPad Prism 5 (GraphPad Software, Inc.).

Data set [1] is described as follows: MTS assay, cytotoxicity (72 h). In kind it is cell-based. The note with it: human, HEK293a SHH+ cells, 72 h; for CC50 at 72 h: read-out: MTS Assay (HEK293a SHH+) CC50 (CI95). Here is the method:
(§1) The survival of HEK293a SHH^+ cells is independent of HH signaling,[35] therefore, the cytotoxicity of analogues was tested using the MTS assay to investigate off-target toxicity. In this assay, HEK293a SHH^+ cells were treated with DMSO vehicle or varying concentrations of analogues for 72 h. Subsequently, a mixture of 1-methoxy phenazine methosulfate (PMS) and [3-(4,5-dimethylthiazol-2-yl)-5-(3-carboxymethoxyphenyl)-2-(4-sulfophenyl)-2H-tetrazolium] (MTS) was added to enable quantification of cell number via colorimetric analysis. […] Compounds 3, 17, 19, 32, 34, 38, and 45, which all contain a 2-((2-methylbutyl)amino)acetyl, were toxic to HEK293a SHH^+ cells, as were ureas 26, 40, and 41.
(§2) HEK293a SHH^+ cells were plated at 5000 cells/well in a 96-well plate (Nunc) using a volume of 50 μL/well and cultured for 24 h as described. Cells were treated with 100 μL/well of either DMSO vehicle, Puromycin (2 μg/mL), or stated analogues (0.14–100 μM final) in DMEM supplemented with 10% FBS. After 72 h, 20 μL/well of a mixture of 1-methoxy phenazine methosulfate (PMS) and [3-(4,5-dimethylthiazol-2-yl)-5-(3-carboxymethoxyphenyl)-2-(4-sulfophenyl)-2H-tetrazolium] (MTS) at a ratio of MTS/PMS = 2/0.92 mg/mL in PBS was added and the plates were incubated for 3 h at 37 °C. Subsequently, the absorption at 490 nm was recorded using an EnVision Xcite 2104 (PerkinElmer), and the response was normalized to vehicle control and Puromycin treated samples. Dose response curves were fitted to a “sigmoidal dose response (variable slope)” model using GraphPad Prism 5 (GraphPad Software, Inc.).
On the technique in general: Formazan colour is commonly taken as a measure of viable cells.

The subject of data set [2] is HH signaling (HEK293a SHH+ conditioned media on SHH-Light2 cells). Kind of data set: Light2 dual-luciferase cell-based HH signaling assay (Firefly). As to conditions: Firefly luciferase, Light2 cells; read-out: HH signaling inhibition EC50 (CI95). Here is the method: Subsequently, the effect of analogues on HH signaling was investigated using a cellular luciferase reporter assay. Light2 cells derived from NIH3T3 cells constitutively express Renilla luciferase as an internal control for cell density alongside Firefly luciferase under the control of a HH-responsive Gli promoter.[43] HEK293a SHH^+ cells were incubated with varying inhibitor concentrations and SHH-containing conditioned media transferred to the NIH3T3-Light2 cells to mimic paracrine signaling[30],[35] (Figure 6A).
The Light2 cell-based signaling assay has been described previously.[35] Briefly, HEK293a SHH^+ cells were plated at 120,000 cells/well of a 12-well plate in a volume of 1 mL/well and cultured as described above. After 24 h, cells were washed with PBS, followed by addition of 1 mL of media containing 0.2% DMSO or varying inhibitor concentrations in DMSO (0.041–30 μM final). Additionally, SHH-Light2 cells were plated at 20,000 cells/well of a 96-well plate in 50 μL media. After another 24 h, 300 μL of the conditioned media were collected from each well of the treated HEK293a SHH^+ cells, centrifuged at 1000g for 10 min to remove detached cells and split into three wells of the SHH-Light2 cells (100 μL/well; 150 μL final volume in each well). The treated Light2 cells were cultured for another 48 h and subsequently washed with PBS. Firefly and Renilla luciferase activity was measured using the Dual-Luciferase reporter system (Promega Corporation, USA). Then 20 μL of 1× passive lysis buffer were added to each well. After 30 min at RT, 5 μL of each lysate were transferred to a white opaque 96-well plate. Then 20 μL/well of luciferase assay reagent II was added and the luminescence immediately recorded using a SpectraMax i3x plate reader (Molecular Devices LLC). Subsequently, 20 μL/well of 1× Stop&Glo substrate in Stop&Glo buffer was added and the luminescence immediately recorded for a second time. Data was evaluated using a “sigmoidal dose response (variable slope)” model in GraphPad Prism 5 (GraphPad Software, Inc.). The luminescence signal of the Firefly luciferase was normalized to the DMSO vehicle (100%) and the unconditioned media (0%) controls.

The next data set has as its system HEK293a SHH+ cells. The data set is described as follows: MTS assay, cytotoxicity (72 h). In kind it is cell-based. The note with it: for decrease in cell viability / cell survival: 12.5 μM; for CC50: 72 h, read-out: MTS Assay (HEK293a SHH+) CC50 (CI95). Here is the method: as §1, §2

SMILES strings stand for the structures.

T1 sequence (Q5VTY9 whole entry): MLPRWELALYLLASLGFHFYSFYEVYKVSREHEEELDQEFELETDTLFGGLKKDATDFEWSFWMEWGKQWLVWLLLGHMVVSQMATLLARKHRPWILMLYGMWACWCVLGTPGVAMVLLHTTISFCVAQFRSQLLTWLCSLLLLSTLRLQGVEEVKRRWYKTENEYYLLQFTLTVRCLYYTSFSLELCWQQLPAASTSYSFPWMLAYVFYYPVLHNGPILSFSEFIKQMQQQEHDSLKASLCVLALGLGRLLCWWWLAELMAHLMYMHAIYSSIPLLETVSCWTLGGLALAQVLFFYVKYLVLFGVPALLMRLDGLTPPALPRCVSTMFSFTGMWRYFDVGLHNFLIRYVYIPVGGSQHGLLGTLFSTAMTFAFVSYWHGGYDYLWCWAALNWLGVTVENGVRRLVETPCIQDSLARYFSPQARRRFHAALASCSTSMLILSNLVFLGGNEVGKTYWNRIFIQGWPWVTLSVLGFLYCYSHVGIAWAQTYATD

As a reminder, the inhibition is how much of the control response was suppressed. A higher inhibition goes with a strong effect. In general, IC50 refers to the point on the concentration scale where inhibition reaches its midpoint. By CC50 is commonly meant the concentration giving 50% cytotoxicity. By viability is commonly meant a read-out of living cells in per cent, often relative to untreated cells. Low readings indicate a greater loss of cells, high ones better survival. As a reminder, the EC50 is the concentration that produces a half-maximal response. As for `Cc1cccc(C2c3ccsc3CCN2C(=O)CNCCC(C)C)n1` (centres unmarked) [Compound 25], on purified HHAT, the inhibition at 25 µM is 80 ± 5%, the inhibition at 50 µM is 86 ± 4%, the LLEAcyl-cLIP came out at 3.90 and the IC50 was 4.62 µM. Moreover, in data set [1], the CC50 at 72 h is 15.3 µM; the viability at 72 h, 12.5 µM was determined as 74 ± 2%; the viability at 72 h, 25 µM was determined as 27 ± 4%. Moreover, the EC50 in data set [2] was found to be 4.25 µM.
Regarding `C=CC(=O)N1CCc2sccc2C1c1cccc(C)c1` (centres unmarked) [Compound 16], on purified HHAT, the inhibition at 25 µM amounted to 51 ± 7%, the inhibition at 50 µM was determined as 62 ± 8%, the LLEAcyl-cLIP is given as 0.66 and the IC50 was 15 µM. Further, in data set [1], the CC50 at 72 h is 19.8 µM; the viability at 72 h, 12.5 µM is 51 ± 1%; the viability at 72 h, 25 µM is 34 ± 3%. Besides, the EC50 in data set [2] stood at 2.96 µM.
Turning to `C=CCNCC(=O)N1CCc2sccc2C1c1ccccc1` (centres unmarked) [Compound 12, 2-(Allylamino)-1-(4-phenyl-6,7-dihydrothieno[3,2-c]pyridin-5(4H)-yl)ethan-1-one], at purified HHAT, the inhibition at 25 µM worked out at 68 ± 5%, at 50 µM the inhibition was 83 ± 1%, the LLEAcyl-cLIP came to 2.94 and the IC50 turned out to be 6.55 µM. In data set [1], the CC50 at 72 h is more than 50 µM; the viability at 72 h, 12.5 µM was 86 ± 2%; the viability at 72 h, 25 µM is 73 ± 2%. Besides, the “decrease in cell viability / cell survival” value in the data set on HEK293a SHH+ cells is reported as less than 30%. Moreover, in data set [2], the EC50 worked out at 2.92 µM.
Regarding `CCC(C)CNCC(=O)N1CCc2sccc2C1c1ccccn1` (centres unmarked) [Compound 19, 2-(2-Methylbutylamino)-1-[4-(pyridin-2-yl)-6,7-dihydro-4H-thieno[3,2-c]pyridin-5-yl]ethanone], on purified HHAT, 25 µM produced 81 ± 1% inhibition, 50 µM produced 91 ± 1% inhibition, the LLEAcyl-cLIP stood at 3.84 and the IC50 came to 7.98 µM. In data set [1], the CC50 at 72 h was found to be 20.3 µM; the viability at 72 h, 12.5 µM came out at 87 ± 1%; the viability at 72 h, 25 µM came out at 75 ± 4%. For the same compound, in the data set on HEK293a SHH+ cells, the “toxicity to HEK293a SHH+ cells” value is reported as “toxic” and the “decrease in cell viability / cell survival” value is listed as less than 30%. Also, the EC50 in data set [2] came to 0.58 µM.
As for `CC[C@H](C)CNCC(=O)N1CCc2sccc2C1c1cccc(C)n1` (some centres unmarked) [Compound 23], on purified HHAT, at 25 µM the inhibition was 87 ± 7%, the inhibition at 50 µM was 86 ± 8%, the LLEAcyl-cLIP is recorded as 4.04 and the IC50 came out at 3.71 µM. Moreover, in data set [1], the CC50 at 72 h is more than 50 µM; the viability at 72 h, 12.5 µM worked out at 87 ± 2%; the viability at 72 h, 25 µM is 74 ± 3%. In addition, in the data set on HEK293a SHH+ cells, the CC50 is more than 100 µM. Moreover, the EC50 in data set [2] was determined as 1.58 µM.
In the case of `COc1ccccc1C1c2ccsc2CCN1C(C)=O` (centres unmarked) [Compound 31], at purified HHAT, the inhibition at 25 µM stood at 68 ± 4%, the inhibition at 50 µM is 81 ± 2%, the LLEAcyl-cLIP is listed as 2.21 and the IC50 was found to be 11.9 µM. In data set [1], the CC50 at 72 h was 16.5 µM; the viability at 72 h, 12.5 µM turned out to be 60 ± 4%; the viability at 72 h, 25 µM amounted to 23 ± 1%. In addition, the EC50 in data set [2] was more than 30 µM.
For `CCC(C)CNCC(=O)N1CCc2sccc2C1c1ccccc1OC` (centres unmarked) [Compound 32, 1-(4-(2-Methoxyphenyl)-6,7-dihydrothieno[3,2-c]pyridin-5(4H)-yl)-2-((2-methylbutyl)amino)ethan-1-one], on purified HHAT, the inhibition at 25 µM worked out at 66 ± 2%, 50 µM produced 79 ± 2% inhibition, the LLEAcyl-cLIP was found to be 3.00 and the IC50 worked out at 8.09 µM. For the same compound, in data set [1], the cytotoxic concentration (CC50) at 72 h was 7.6 µM; the viability at 72 h, 12.5 µM turned out to be 55 ± 3%; the viability at 72 h, 25 µM came out at 42 ± 2%. For the same compound, the “toxicity to HEK293a SHH+ cells” value in the data set on HEK293a SHH+ cells was “toxic”. In data set [2], the EC50 is more than 30 µM.
In the case of `CC(C)CNCC(=O)N1CCc2ccccc2C1c1ccccc1` (stereo in doubt) [Compound 43, (R)-2-((2-Methylpropyl)amino)-1-(1-phenyl-3,4-dihydroisoquinolin-2(1H)-yl)ethan-1-one], on purified HHAT, the inhibition at 25 µM came out at 88 ± 3%, the inhibition at 50 µM was 93 ± 3%, the LLEAcyl-cLIP is recorded as 3.64 and the IC50 came to 2.77 µM. Besides, the “fold increase in potency compared to racemate” value on purified HHAT (enantiomer vs racemate (29 vs 21, 30 vs 24, 43 vs 39)) is 2 fold. In addition, in data set [1], the 50% cytotoxic concentration (CC50) at 72 h is more than 50 µM; the viability at 72 h, 12.5 µM was 98 ± 2%; the viability at 72 h, 25 µM turned out to be 97 ± 3%. In addition, in the data set with HEK293a SHH+ cells, the “decrease in cell viability / cell survival” value was less than 30% and the CC50 is more than 100 µM. Besides, the EC50 in data set [2] is 0.8 µM.
Regarding `CC(=O)N1CCc2sccc2C1c1cccc(C)n1` (centres unmarked) [Compound 21], on purified HHAT, 25 µM produced 72 ± 3% inhibition, the inhibition at 50 µM stood at 82 ± 3%, the LLEAcyl-cLIP is reported as 2.84 and the IC50 stood at 13.4 µM. Moreover, in data set [1], the CC50 at 72 h was more than 100 µM; the viability at 72 h, 12.5 µM is 98 ± 4%; the viability at 72 h, 25 µM is 94 ± 3%. Moreover, in data set [2], the EC50 stood at 5.46 µM.

For the origin of these results see paper PMC10823475, “Design, Synthesis, and Evaluation of Inhibitors of Hedgehog Acyltransferase” (Journal of Medicinal Chemistry, 2024).
